Assay results from article PMC9363482, “The crystal structure of Cry78Aa from Bacillus thuringiensis provides insights into its insecticidal activity” (Communications Biology, 2022).
pKd: −log10 of the molar value.

Assays:
Cry78Aa (Cry78Aa1) = biological target: T1, Cry78Aa (Cry78Aa1) (Bacillus thuringiensis, UniProt A0A3S6Q0Y2); conditions: 20 mM Tris-HCl pH 8.0, 25 °C; one-site binding model; 50 mM sugar into 150 µM protein
T1 construct: ITC section says only 'Cry78Aa protein'

[1] = other: SDS-PAGE under mild denaturing conditions

T1 sequence (A0A3S6Q0Y2 1-359 limits assumed): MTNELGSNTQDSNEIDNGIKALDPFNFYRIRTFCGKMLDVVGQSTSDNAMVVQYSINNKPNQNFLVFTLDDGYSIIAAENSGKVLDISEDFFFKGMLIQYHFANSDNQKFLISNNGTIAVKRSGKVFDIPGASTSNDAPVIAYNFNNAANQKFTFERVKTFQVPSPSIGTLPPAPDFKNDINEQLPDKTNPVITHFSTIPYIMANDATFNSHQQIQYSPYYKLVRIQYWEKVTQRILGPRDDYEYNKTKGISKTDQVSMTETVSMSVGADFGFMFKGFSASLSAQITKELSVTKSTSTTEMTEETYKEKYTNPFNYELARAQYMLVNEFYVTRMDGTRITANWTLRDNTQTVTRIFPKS

For OC[C@H]1O[C@@H](O[C@H]2[C@H](O)[C@@H](O)C(O)O[C@@H]2CO)[C@H](O)[C@@H](O)[C@H]1O (stereo partly drawn) [lactose], the pKd (Cry78Aa (Cry78Aa1)) was about 1.99.

In the case of Cry78Aa_(155-359), the “percent of the sample as oligomers or aggregates in 0.1% SDS” value [1] was ~30% of the total sample loaded onto each lane.

CC(=O)N[C@H]1C(O)O[C@H](CO)[C@H](O)[C@@H]1O (stereo partly drawn) [GalNAc] gave a pKd (Cry78Aa (Cry78Aa1)) of about 2.01.
